Assay results published in patent publication US11648248B1 (King Abdulaziz University, priority 2022, dated 2023).

Test system: Gram-positive strains
Experiment: Relative MIC compared to reference drugs (FIG. 3)
Assay type: cell-based
Excerpt: FIG. 3. Relative MIC of MY31 compared to reference drugs.
For instance, it stopped the growth of VRSA strains with more potency than sorafenib (the prototype) and, as expected, much higher than vancomycin. […] Material and Methods

O=C(Nc1ccc(Oc2ccc(=O)[nH]n2)cc1)Nc1ccc(Cl)c(C(F)(F)F)c1 [MY31, 1-(4-chloro-3-(trifluoromethyl)phenyl)-3-(4-((6-oxo-1,6-dihydropyridazin-3-yl)oxy)phenyl)urea]
bacteriostatic activity relative to tested compounds and positive control antibiotics: highest bacteriostatic activity among the tested compounds
